Data taken from ChEMBL document CHEMBL3507680, “University of Dundee, Gates Library screen for HepG2 cell viability”.

Assay: Human HepG2 cell viability assay in 384 well format
Type: toxicity, cell-based
Parameters: dose 125 nL, time 70.5 hour; concentration not given beside the values
Conditions: HepG2 cells, read-out: Inhibition

Row | Compound | cytotoxicity at 70.5 h [%]
1 | CN1C(=O)C2(CC(=O)Nc3c2cnn3C(C)(C)C)c2c(Cl)cccc21 (centres undefined) | -19.1
2 | O=C1[C@@H]2CCN(Cc3ccc(F)cc3)C[C@@H]2OCCN1c1cccnc1 | -3.72
3 | Cc1cc(OCC(=O)N2CCCC2c2noc(C)n2)no1 (centres undefined) | -13.8
4 | CC1Cc2ccccc2N1Cc1occc1C(=O)O (centres undefined) | -5.89
5 | CC(C)c1cc(C(=O)N2CCN(CC3CC3)[C@@H]3CS(=O)(=O)C[C@@H]32)no1 | -3.21
6 | Cc1cccc(CN2C[C@@H]3CN(C(=O)NC(C)C)C[C@@H]3C2=O)n1 | -12
7 | CCN(C)C1CCCc2nc(C)sc21 (centres undefined) | -5.07
8 | Cc1cc(CNc2ccnn2CC(C)C)ccc1-n1cncn1 | 7.96
9 | C[C@@H]1CN(C(=O)c2cn(CCN3CCCCC3)nn2)C[C@H](C)O1 | -0.236
10 | Cc1ncnc2c1CCN(C(=O)c1cccnc1)CC2 | -6.81
11 | CC(C)(C)n1cc(NC(=O)C2CN(Cc3ccccc3)CCO2)cn1 (centres undefined) | -0.308
12 | Cc1nc(CN2CCCN(C(=O)c3ccn(C)c(=O)c3)CC2)cs1 | 30.7
13 | COc1ccc2nnc(CCC(=O)Nc3nc(C)c(C)s3)n2n1 | -9.75
14 | COc1cccc(CNC(=O)CN2CCCCC2Cn2cccn2)c1 (centres undefined) | -7.75
15 | COC1CCCN(c2nc(C)nc3c2CCN(Cc2ccco2)CC3)C1 (centres undefined) | 8.06
16 | Cc1cc(C(=O)NCCSC2CCCC2)no1 | -1.92
17 | CC1CCN(C(=O)C2(Cc3cc(C4CCOC4)no3)CCNCC2)CC1 (centres undefined) | -1.77
18 | O=C(Cc1cccnc1)N1CCC2(CCN(CC3CCCCC3)C2)CC1 | 7.82
19 | O=C(Nc1ccc(N2CCOCC2)nc1)N1CCc2sccc2C1 | 46.1
20 | Cc1cc(C(=O)N2CCc3c(CN(C)C(C)C)n[nH]c3C2)[nH]n1 | 0.919
21 | O=C(Nc1ccccc1-c1cccs1)N1CCN(CC(F)F)CC1 | -11.6
22 | O=S1(=O)CCN(c2nc(C3CC3)ns2)CC1 | -5.98
23 | Cc1nc(C)n(CC(=O)N2CCc3ncc(Cl)cc3C2)n1 | 7.22

Row | Compound | cytotoxicity at 70.5 h [%]
24 | CCc1nccn1CCCNC(=O)c1cnn(-c2ccccc2OC)c1 | -5.05
25 | COc1ccc(CCNC(=O)CN2CCCC2c2noc(C)n2)cc1 (centres undefined) | -1.93
26 | c1ccc(-c2ncc3c(n2)C2(CCN(c4ncccn4)C2)COC3)cc1 (centres undefined) | -2.35
27 | Cc1cc(C)cc(CN2CCCC2c2noc(C)n2)c1 (centres undefined) | 0.367
28 | CC(C)CCc1nc(CN2CCOC(Cn3cncn3)C2)cs1 (centres undefined) | -2.95
29 | CCN(Cc1c(C)nn(C)c1C)C(=O)C1COc2ccccc2C1 (centres undefined) | -4.62
30 | O=C(NCCN1CCOCC1)N1CCN(c2ccccc2)CC1 | -10.1
31 | CN1CCCCCC1C(=O)NCCCn1ncc2ccccc21 (centres undefined) | -11.3
32 | COCCNC(=O)c1cc2c(nc1O)CC(c1cccs1)CC2=O (centres undefined) | -12.9
33 | CCOc1ccc(C(F)(F)F)cc1NC(=O)N1CCC(C(N)=O)CC1 | -4.57
34 | N#Cc1cn[nH]c1NCc1cc(Cl)cc(Cl)c1O | 17.4
35 | O[C@@H]1C[C@H]2CN(Cc3ccccc3)[C@H](Cc3ccccc3)CN2C1 | 27.4
36 | N#CCCN(CC1CCOC1)Cn1ccc(-c2cccs2)n1 (centres undefined) | 8.39
37 | CCCc1cc(N2CCC(NC3CCS(=O)(=O)C3)CC2)nc(C)n1 (centres undefined) | -4.65
38 | CCCn1ccnc1-c1nccn1CCn1cnnc1 | -6.38
39 | Cn1cc(C[C@H]2[C@H](O)CCN2Cc2ccncc2)cn1 | -5.7
40 | CN[C@H]1CC[C@]2(CC1)CNC(=O)c1cc(C)ccc1O2 | -8.44
41 | CC(C)Oc1cc(N2CCN(Cc3ccsc3)C(CCO)C2)nc(N)n1 (centres undefined) | -17
42 | O=C(CCN1CCc2ccccc21)N1C[C@@H](O)[C@H](N2CCOCC2)C1 | -3
43 | CN1CC(=O)N(c2ccccc2)CC12CCN(CCO)C2 (centres undefined) | 6.4
44 | COc1ccc(C)cc1C(=O)N1CCCC(n2nc(C)nc2C)C1 (centres undefined) | -8.26
45 | Cc1ccc(C(=O)NCC2COCCO2)c(=O)[nH]1 (centres undefined) | -17
46 | CCOC(=O)CCNC(=O)c1cccc2ccc(C)nc12 | 0.845

Row | Compound | cytotoxicity at 70.5 h [%]
47 | CCN(CCn1cccn1)Cc1nc(-c2ccc(C)o2)oc1C | 13
48 | Cc1nc(C)n(CC2CCCN2Cc2nc(-c3ccco3)no2)n1 (centres undefined) | -4.04
49 | NCCO[C@H]1C[C@@H](O)C12CCN(C1Cc3ccccc3C1)CC2 | 34.2
50 | COc1cccc(C(=O)N2CCc3c(nc(N)[nH]c3=O)C2)c1C | 1.02
51 | CCn1cnnc1CNC(=O)NC(C)C(C)C (centres undefined) | -17.7
52 | Cc1nn(C)c(C)c1C1CCCN1C(=O)Cc1cn2ccsc2n1 (centres undefined) | 23.9
53 | CCc1cc(CN(Cc2cccnc2)C2CN3CCC2CC3)on1 (centres undefined) | 24.6
54 | CCN(CCC#N)Cn1ncc2cn(-c3ccccc3)nc2c1=O | -2.4
55 | Cc1nn(C)cc1CN1CCc2c(nc(-c3ccccn3)[nH]c2=O)C1 | -5.77
56 | CC(C)C(=O)NCC(=O)N(C)C1CCCN(C2Cc3ccccc3C2)C1 (centres undefined) | -10.4
57 | COCCCN1C(=O)c2ccc(C(=O)NCCc3c[nH]cn3)cc2C1=O | 1.41
58 | Cn1cc(N2CC3(CCN(Cc4nccs4)CC3)OCC2=O)cn1 | 39.5
59 | NC(=O)N1CCC(NCc2cc(C(F)(F)F)ccc2Cl)CC1 | -5.57
60 | Cc1cc(NCCNS(=O)(=O)c2cccc(Cl)c2)nc(C)n1 | -1
61 | Cc1sc(C(=O)NC(C)C)cc1S(=O)(=O)N(C)C | -5.26
62 | CCN(CC)Cc1ccc(C(=O)NC2CCc3ccccc32)o1 (centres undefined) | 21.6
63 | COc1ccc2c(c1)OCC(CNC1CCc3ncnn3C1)=C2 (centres undefined) | -0.263
64 | CC(C)CNC(=O)CSC1CCc2ccccc2NC1=O (centres undefined) | -15.8
65 | CN(C)CCN1CCc2ncc(CN(C)Cc3ccco3)n2CC1 | 30
66 | COCCn1c(CN2CCCO2)cnc1S(=O)(=O)CC1CCCCC1 | -2.9
67 | Cc1ccc(N2CCC3(CC2)CNC(=O)CO3)nn1 | -4.26
68 | COc1cccc(SCCCn2cnc3c(N)ncnc32)c1 | 6.56
69 | Cn1c(=O)oc2ccc(NC(=O)N3CCSCC3)cc21 | -18.1

Row | Compound | cytotoxicity at 70.5 h [%]
70 | Cc1ccc(CN(C)C(=O)NCC(C)(C)NS(C)(=O)=O)s1 | -3.9
71 | CCCc1n[nH]c(C2CN(C(=O)C3=COCCC3)CCO2)n1 (centres undefined) | -16.3
72 | COc1ncccc1C(=O)N1CCC(c2nc3c(C)cccc3[nH]2)CC1 | -6.55
73 | O=C(c1cc2c(s1)CCC2)N1CCN(c2cnccn2)CC1 | -14.9
74 | CC(=O)Nc1ccc(CN2CCc3[nH]cnc3C2c2nccn2C)cc1 (centres undefined) | -3.14
75 | O=C(c1cn(-c2ccc(F)cc2)nn1)N1CCCC(n2cccn2)C1 (centres undefined) | -1.26
76 | Cc1cc(N2CCC(N3CCOCC3)C2)n2nc(C)c(C)c2n1 (centres undefined) | -4.03
77 | Cc1cc(C)c(CNC(=O)NCc2ccc(F)cc2)c(=O)[nH]1 | -3.16
78 | c1c(CN2CCOCC2)nc2n1CCN(CC1CC1)C2 | -3.69
79 | COCC1CN(C(=O)Nc2cc(-n3cccc3)ccc2F)CCO1 (centres undefined) | 7.34
80 | CN(C)C(=O)[C@@H]1CC[C@@H]2[C@@H](CCN2Cc2ccccn2)O1 | -7.99
81 | CCOCCN1CCN(Cc2cccc(C(=O)N(C)C)c2)CC1C (centres undefined) | -9.62
82 | Cc1c[nH]c(C2COCCN2C(=O)CCc2c(C)n[nH]c2C)n1 (centres undefined) | -9.97
83 | COc1ccc(S(=O)(=O)N2CCOC(C)(C(N)=O)C2)cc1 (centres undefined) | -3.24
84 | Oc1cccc(-c2cc(CC3(N(CC4CC4)CC4CC4)COC3)no2)c1 | -6.61
85 | Cc1nc(C)n(C2CCCN(C(=O)c3nc(C)n4ccccc34)C2)n1 (centres undefined) | -9.2
86 | COc1cccc(Cn2ncnc2CCC(C)N2CCN(C)CC2)c1 (centres undefined) | -4.48
87 | CCn1cc(CN2CCCn3nc(CCC(=O)NCCO)cc3C2)cn1 | -3.88
88 | CC(C(=O)O)N1CC2(CCC1=O)CCN(CCc1ccccc1)CC2 (centres undefined) | -11
89 | C=C(C)COc1ccccc1NC(=O)NC1CCOCC1 | 2.28
90 | c1cncc(CN2CCC(c3ccnc4nccn34)C2)c1 (centres undefined) | -1.1
91 | Cc1ccc(N2CC[C@@H]3[C@@H]2CCN3C(=O)Cc2ccsc2)nn1 | -4.23
92 | O=C(Nc1ccc(Cl)cn1)C1CCCN(Cc2ccccn2)C1 (centres undefined) | -1.12

Row | Compound | cytotoxicity at 70.5 h [%]
93 | Cc1cnn(CC2CCCN2Cc2nc(N)c3ccccc3n2)c1 (centres undefined) | 45.2
94 | COc1ccc(OC)c(CNCc2c(C)nc3sc(C)cn23)c1 | 16.5
95 | O=C(NCc1ccc(Br)cc1F)C1(O)CCSCC1 | -2.81
96 | CC(C)Cc1nc(CSC2CCCN(c3cnn(C)c3)C2=O)no1 (centres undefined) | -1.14
97 | O=C1CCC2(CCN(Cc3ccc(F)cc3Cl)CC2)CN1CCO | 12.9
98 | CCSc1cc(C(=O)NC(C)c2cccc(N3CCOC3=O)c2)ccn1 (centres undefined) | 16.4
99 | CC(C)(C)n1cc(C2=CCN(CCN3CCCCCC3)CC2)cn1 | -4.69
100 | O=C(NCCCN1CCN(c2ncccn2)CC1)NCC1CCOC1 (centres undefined) | 3.56
101 | COc1ccc(CNC(=O)NCCc2csc(C)n2)cn1 | 10.9
102 | CCn1cc(NC(=O)C2CCN(CC(=O)NCC(C)C)CC2)cn1 | -5.15
103 | Cc1ccc(N2CCCC(NCC(=O)Nc3cc(C)nn3C)C2)nn1 (centres undefined) | -4.79
104 | CCN1CCN(c2ncc(-c3cc(C)no3)c(-c3ccoc3C)n2)CC1 | -2.3
105 | COc1ccc(C(=O)N2CCC(Nc3ccc(C)nn3)CC2)cc1 | 0.696
106 | N#CC1(NC(=O)c2ccc(-c3nc(C4CC4)n[nH]3)cc2)CC1 | -12.9
107 | O=c1oc(-c2cccs2)nn1CC1(O)CCCCC1 | -1.35
108 | CC(C)NC(=O)[C@H]1C[C@@H]2CN(C(=O)NC(C)C)C[C@H]1O2 | -10.3
109 | NC(=O)c1ccc(CNC2CCCSC2)cc1 (centres undefined) | -1.72
110 | O=C1CCCCCN1Cc1cccc(OC(F)F)c1 | -5.05
111 | COc1ccccc1CCNC(=O)NCC(=O)Nc1cccnc1 | -0.968
112 | CNC(=O)c1sc2ccccc2c1CC1CCCCN1Cc1ncc[nH]1 (centres undefined) | -7.25
113 | CN(C)c1ncccc1NC(=O)C1CN(Cc2ccccc2)CCO1 (centres undefined) | -2.14
114 | Cc1noc(C)c1C1CCCN1C(=O)CN1CC2(CCNCC2)OC1=O (centres undefined) | 19.7
